Several values for one entry are separate records, joined by “and”; a condition that tells them apart may be missing. Identical values can stand only once.
Assays:
[1] = Vulval tissue (biopsy) concentration after intravaginal administration of vaginal ring; type: in vivo, Cynomolgus monkeys; conditions: ring 40 mg free base; Phase 1; Day 28; per animal; biopsy weight estimated
Protocol: (§1) The study was performed in four single dose phases with 28-day sampling period after Phases 1 and 2 (7-day washout period between doses). Vaginal rings were investigated for Pritelivir free base and Pritelivir mesylate salt at two dose levels per formulation. The test items were applied as vaginal ring in Phases 1 and 2 to female monkeys. The study design is below in the Table 3.
(§2) Vulval and vaginal biopsies were taken from all animals at the following times in relation to dosing.
(§3) For the sampling biopsies were taken with a suitable biopsy instrument. Biopsy samples were snap frozen on dry ice following collection and stored deep frozen (−20° C. or below) until analysis.
(§4) After suitable dilution, plasma and vaginal samples were analyzed on UPLC system Waters Acquity UPLC-HSS PFP column with 1.8 μm particles (100×2.1 mm) by gradient elution using 0.1% formic acid and methanol containing 0.1% formic acid. For detection, a time-of-flight mass spectrometer (Xevo GS-2 QTOF, Waters) was used operating in positive ionization mode (MSe analysis). The samples were analyzed for their content of Pritelivir free base.
Vaginal and vulval biopsies were taken 28 Days after administration of intravaginal rings. As biopsies were not weighed prior extraction, weights were estimated based on data from similar investigations using the same settings for biopsies. From this study minimum, maximum, and mean biopsy weight was used for the calculation. These biopsy weights ranged from 0.7 to 6.3 mg, mean 2.95 mg. For all calculations it was assumed that 1 kg tissue is equal to 1 L water.

[2] = Safety and tolerance of Pritelivir loaded rings (clinical signs, body weights); type: in vivo, Cynomolgus monkeys; conditions: single vaginal doses as rings: 40 or 240 mg free base, 49.6 or 297 mg mesylate
Protocol: as §1
The study was designed to obtain information on the time-course of unchanged test compound concentrations in plasma and vaginal fluid/tissue, following single intravaginal administration of rings to female Cynomolgus monkeys. Objectives of this study were to determine the safety and tolerance of Pritelivir loaded rings, as well as systemic and local exposure (plasma, vaginal fluid and vaginal and vulval tissue, respectively). Local exposures were compared with in vitro efficacy data of Pritelivir to get an idea on initial pharmacokinetic/pharmacodynamic (PK/PD) parameters for vaginal rings, i.e. to assess the potential ability of a Pritelivir loaded ring to suppress viral replication in the target tissue. Table 9 gives an overview on the EC50 values of Pritelivir on HSV-1 and HSV-2 Data source: Field, H. J., et al., Baseline sensitivity of HSV-1 and HSV-2 clinical isolates and defined acyclovir-resistant strains to the helicase-primase inhibitor pritelivir. Antiviral Res, 2013. 100(2): p. 297-9. […]

[3] = In vitro release from matrix-type silicone elastomer vaginal rings; type: physicochemical; conditions: isopropanol/H2O, 37° C.
Protocol: HPLC analysis was conducted using an Agilent 1200 Series HPLC system, consisting of a quaternary HPLC pump, an auto sampler, an in-line Degasser AF Unit, a dual λ absorbance detector, and a column heater. A BDS Hypersil C18 (Thermo Scientific) column (length 150 mm, id 4.6 mm, particle size 3 μm) was used. The mobile phase comprised 45% of 1% w/v glacial acetic acid and 55% methanol pumped isocratically at a flow rate of 1 mL/min. The sample injection volume was 25 μL, the column temperature was 25° C., and detection was performed at 280 nm. Run time for the method was 5 min
Human-sized (56 mm or ×7.6 mm id), matrix-type, silicone elastomer vaginal rings containing either 25 mg or 400 mg of Pritelivir were manufactured by reaction injection molding of drug+silicone mixes. For the 25 mg rings, 272 mg Pritelivir free base or Pritelivir mesylate salt was weighed into a polypropylene Speedmixer container along with DDU-4320 silicone elastomer Part A (40 g) and Part B (40 g). After mixing (Speedmixer DAK 150 FVZ-K; 3000 rpm for 30 sec), the mixture was transferred to a 60 mL disposable plastic syringe and injected into pre-heated (90° C.) custom, two-cavity ring molds fitted to a laboratory-scale injection molding machine. After 3 minutes, the cured rings were removed from the molds. For the 400 mg rings, 4325 mg of Pritelivir free base or Pritelivir mesylate salt was weighed. Four samples of each ring type were manufactured.
Pritelivir rings were individually placed into stoppered glass flasks containing 100 mL isopropanol/H2O. The flasks were placed in a shaking orbital shaker (37° C., 60 rpm). The release medium was sampled (˜5 mL) every 24 h over a fourteen day period, with complete replacement of the 100 mL release medium at each sampling point to maintain sink conditions. Quantification of Pritelivir free base or Pritelivir mesylate salt concentrations in the samples was performed using the HPLC-UV method.

[4] = Vaginal tissue (biopsy) concentration after intravaginal administration of vaginal ring; type: in vivo, Cynomolgus monkeys; conditions: 6-fold higher dose; Day 28
Protocol: as §1, §2, §3, §4
Vaginal and vulval biopsies were taken 28 Days after administration of intravaginal rings. As biopsies were not weighed prior extraction, weights were estimated based on data from similar investigations using the same settings for biopsies. […]

Vulval tissue concentration of Pritelivir free base, Max [1]: <2.0 µg/g and 0.134 µg/g and 0.742 µg/g | Vulval tissue concentration of Pritelivir free base, Mean [1]: <2.0 µg/g and 0.0318 µg/g and 0.176 µg/g | Cumulative Day 14 release ([3]; 25 mg matrix-type ring): 604.13 µg | Mean Day 1 release ([3]; 25 mg matrix-type ring): 122.17 µg | Mean Day 14 release ([3]; 25 mg matrix-type ring): 24.77 µg | Release rate ([3]; 25 mg matrix-type ring): 177.0 µg/day | Cumulative Day 14 release ([3]; 400 mg matrix-type ring): 2,495.52 μg | Mean Day 1 release ([3]; 400 mg matrix-type ring): 443.45 µg | Mean Day 14 release ([3]; 400 mg matrix-type ring): 102.16 µg | Release rate ([3]; 400 mg matrix-type ring): 752.5 µg/day | Increase of vaginal tissue concentrations, Phase 2 vs Phase 1 [4]: 2 fold
Structure (SMILES): Cc1nc(N(C)C(=O)Cc2ccc(-c3ccccn3)cc2)sc1S(N)(=O)=O [Pritelivir free base]
Vulval tissue concentration of Pritelivir free base, Min [1]: <2.0 µg/g and 0.0149 µg/g and 0.0825 µg/g | Adverse findings for clinical signs or body weights [2]: did not result in any adverse findings
